From patent publication US6635802B1, “Nuclear transfer using cells cultured in serum starvation media containing apoptosis inhibitors” (The Texas A&M University System, priority 2000, dated 2003) come the findings set out here.

Holding throughout (format): cell-based
The subject of experiment [1] is porcine PGCs. In words: In vitro culture of porcine PGCs on STO feeder cells with apoptosis inhibitors; AP-stained colonies counted. The note with it: Table 6 protease inhibitors: MAC 0.7 pM, PA 50 μM, AEBSF 250 μM, TLCK 100 μM; normalized to control.
Experiment [2] has as its system porcine PGCs. The experiment is described as above. The note with it: for Effect on the number of PGCs, in words: single concentrations of Tables 6 and 7; for Normalized # of Colonies + SE: Table 7 antioxidants: NAC 1.0 mM, BHA 0.1 mM, BPN 1.0 mM, CIM 2.0 mM, normalized to control. An excerpt: Porcine fetuses were collected from hysterectomized uteri of four-way crossbred gilts (DeKalb, Ill.) between day 25 and 30 of pregnancy (estrus=day 0). Fetuses were washed in phosphate buffered saline supplemented with BSA (0.4%, Sigma St. Louis, Mo.) and penicillin/streptomycin (1%, Gibco BRL, Rockville, Md.) (PBS/BSA/PS). Urogenital ridges, appeared as longitudinal protrusions along the medial mesonephric surface, were isolated and washed in PBS/BSA/PS followed by several washes in PES medium before PGC collection. The PES medium was comprised of 50:50 mixture of Dulbecco's modified Eagle's medium (DMEM) and Ham's F10 medium supplemented with 15% fetal bovine serum (FBS), L-glutamine (2 mM), β-mercaptoethanol (0.1 mM), MEM non-essential amino acids (1%) and penicillin/streptomycin (1%). All media and supplements were purchased from Gibco BRL.
PGCs were isolated by incubation in 0.25% trypsin/1 mM EDTA solution (Gibco BRL) followed by gentle pipetting or by mechanical dissociation of ridges into small fragments followed by gentle pipetting. After tissue disruption, cells were centrifuged for 5 minutes at 250 rpm to remove tissue debris and clumps. The supernatant containing most the single cells was collected and centrifuged at 1000 rpm for 10 minutes.
PGCs were resuspended with PES medium containing cytokines, such as soluble recombinant human stem cell factor (SCF; 40 ng/ml), human basic fibroblast growth factor (bFGF; 20 ng/ml), and human leukemia inhibitory factor (LIF; 20 ng/ml). All cytokines were obtained from R&D Systems (Minneapolis, Minn.). Cell suspensions were plated on irradiated mouse STO feeder cells (3×10^6 cells per 35 mm well), prepared as previously described (Piedrahita et al., 1998) and cultured in humidified environment of 5% CO2 in air, 38° C. PGC-derived colonies with ES-like morphology after 7-10 days of culture are passaged to fresh feeders for establishment of cell lines. PGC-derived colonies were dissociated with 0.25% trypsin/1 mM EDTA (Gibco BRL) for 10 minutes. […] To identify PGC-derived cells and the state of differentiation were determined by morphology and by expression of alkaline phosphatase (AP).
AP activity was determined as described previously (Moore and Piedrahita, 1997). Briefly, culture plates were rinsed twice in PBS and fixed in 4% formaldehyde in PBS for 15 minutes at room temperature. Fixed cells were washed twice with PBS and stained in naphtol AS-MX phosphate (200 μg/ml; Sigma) and Fast Red TR salt (1 mg/ml; Sigma) in 100 mM Tris buffer, pH 8.2 for 30 minutes at room temperature. Staining was terminated by washing cultures in PBS. Specificity of AP activity was determined by staining in the presence of the AP inhibitor, tetramisole (500 μM; Sigma). Mouse ES cells also were stained as control for AP activity.
To determine the effect of apoptosis inhibitors on survival of porcine PGCs in vitro, freshly isolated PGCs were cultured as described above with or without apoptosis inhibitors, α2-macroglobulin (MAC: broad range protease inhibitor, 1.4 pM) and N-acetylcysteine (NAC: antioxidant, 1 mM). After 7-10 days of culture, colonies were stained for AP activity and counted. Studies were performed at least three replicates. The data were normalized to the treatment with no inhibitors added (control) and tested for homogeneity of variance and analyzed by ANOVA. Mean separation is accomplished by Fisher's protected LSD using software SuperANOVA (Abacus Concepts).
Dose titration of MAC (0.35, 0.7, 1.4, and 2.8 pM) and NAC (0.25, 0.5, 1.0, and 2.0 mM), to determine the optimal concentration of inhibitors, were performed.

Experiment [3] deals with Porcine embryonic fibroblast (PEF). In words: Cell cycle distribution (propidium iodide flow cytometry) of serum starved porcine embryonic fibroblasts. The source says: (§1) Porcine embryonic fibroblast (PEF) were isolated from day 25-28 fetuses according to the methods previously described (Hogan et al., 1994). Briefly, porcine fetuses of day 25-30 (day 0=estrus) were removed from the uterus and rinsed with PBS+penicillin/streptomycin solution (PBS/PS). Head, limbs and internal organs were removed, and the carcasses were minced with razor blades or ground using a syringe head until they were the consistency of sludge. Then these were trypsinized 2-3 times using 0.25% trypsin+EDTA for 20 minutes. The supernatant fraction was removed and centrifuged to collect the cells. The cells were plated using DMEM+10% fetal bovine serum (FBS) and cultured up to 80-90% confluency before further passage.
(§2) Bovine embryonic fibroblasts (BEF) were isolated from the fetus with 3-5 cm crown-rump length. After two or three passages, cells were plated one million cells per plate (100 mm) with growth medium (DMEM) with 2 mM L-glutamine, 0.1 mM β-mercaptoethanol and 10% FBS. After 24 hours, cells were washed with PBS 3-5 times and then serum starvation medium with 0.5% FBS was added. In addition, cells were treated with serum starvation medium containing apoptosis inhibitors such as a2-macroglobulin (0.7 pM), N-acetylcysteine (1 mM) and glutathione (2 mM). Cells were treated with serum starvation with or without apoptosis inhibitors for 5 or 10 days. Then cells were trypsinized and counted.
(§3) Cells (1×10^6) were washed in 0.15 M NaCI, fixed in 70% ethanol, and stored at −20° C. overnight or until ready to be analyzed. For analysis, cells were centrifuged, rinsed with PBS, resuspended in 500 μl of a 0.05 mg/ml propidium iodide/0.1% Triton X-100/0.2 mg/ml RNase A solution, and incubated for a minimum of 30 minutes at room temperature in the dark. Cells were analyzed by flow cytometry to determine DNA content. Modfit LT™ (Verity Software House, Topsham, Me.) was used to model the cell cycle distribution within each sample.
A general note: A flow cytometer gives signals particle by particle.

Experiment [4] concerns Bovine embryonic fibroblasts (BEF). In words: Cell cycle distribution (propidium iodide flow cytometry) of serum starved bovine embryonic fibroblasts. The protocol: as §2, §3
Experiment [5] shares this test system. Kind of experiment: TUNEL assay (flow cytometry) of serum starved bovine embryonic fibroblasts. The note with it: MAC 0.7 pM, NAC 1 mM, GSH 2 mM. How it is done: as §2
After counting, cells were fixed and stained according to protocols with the APO-BRDU kit (Phoenix Flow Systems, San Diego, Calif.). Briefly, cells were fixed in 1% paraformaldehyde in PBS on ice for 15 minutes, washed in PBS, and fixed in 70% ethanol and stored at −20° C. until use. After removing the fixative, cells were washed twice and suspended in 50 μl of labeling solution containing Br-dUTP (bromolated deoxyuridine triphosphate) and TdT (terminal deoxynucleotidyl transferase) for 60 minutes at 37° C. TdT catalyzes the addition of Br-dUTP to the 3′-OH ends of DNA strand breaks in a template independent manner. To determine base line fluorescence, control cells were incubated without TdT. After rinsing, cells were incubated with an anti-BrdU monoclonal antibody conjugated to fluorescein for 30 minutes in the dark at room temperature; apoptotic cells which contain many free 3′-OH ends are intensely labeled, while non-apoptotic cells whose DNA is largely intact have little Br-dUTP incorporation and remain unlabeled. Following counterstaining with a propidium iodide/RNase A solution for 30 minutes in the dark, which allows simultaneous analysis of cell cycle position and apoptosis, cells were analyzed on a FACSCalibur™ flow cytometer (Becton Dickinson, San Jose, Calif.). Fluorescence emissions were measured at 582±21 nm for propidium iodide and 530±15 nm for fluorescein, without spectral compensation, after excitation at 488 nm by an argon-ion laser. For analysis, gates were set so that less than 2% of samples incubated without TdT were positive. Any event above this gate was deemed TUNEL positive for samples incubated with TdT.

Experiment [6] relates to Porcine embryonic fibroblast (PEF). Kind of experiment: TUNEL assay (flow cytometry) of serum starved porcine embryonic fibroblasts. The note with it: serum starvation 5 days, MAC 0.7 pM, NAC 1 mM, GSH 2 mM, serum starved without inhibitor 26.50.
Text: as §1, §2
After counting, cells were fixed and stained according to protocols with the APO-BRDU kit (Phoenix Flow Systems, San Diego, Calif.). […] To determine base line fluorescence, control cells were incubated without TdT. […] Following counterstaining with a propidium iodide/RNase A solution for 30 minutes in the dark, which allows simultaneous analysis of cell cycle position and apoptosis, cells were analyzed on a FACSCalibur™ flow cytometer (Becton Dickinson, San Jose, Calif.). Fluorescence emissions were measured at 582±21 nm for propidium iodide and 530±15 nm for fluorescein, without spectral compensation, after excitation at 488 nm by an argon-ion laser. […]

[7] abbreviates: addition during the starvation period.
The mark [8] stands for this setting: serum starvation 5 days, MAC 0.7 pM, NAC 1 mM, GSH 2 mM.

Each structure is given as a SMILES string. Where a SMILES comes first, the peptide text is derived from it. [ ]: non-standard residue; d: D form. The star is where a group is joined. Sta = CC(C)C[C@H](N)[C@@H](O)CC(=O)O; Isovaleryl = CC(C)CC(=O)*

Regarding `CC(C)CC(=O)N[C@H](C(=O)N[C@H](C(=O)N[C@@H](CC(C)C)[C@@H](O)CC(=O)N[C@@H](C)C(=O)N[C@@H](CC(C)C)[C@@H](O)CC(=O)O)C(C)C)C(C)C` [PA, pepstatin A] (Isovaleryl-VV[Sta]A[Sta]-OH), the “Normalized # of Colonies + SE” value in the experiment on porcine PGCs [1] worked out at 0.85 ± 0.13.
With `NCCc1ccc(S(=O)(=O)F)cc1` [AEBSF, 4-(2-aminoethyl)benzenesulfonyl fluoride], the “Normalized # of Colonies + SE” value in the experiment with porcine PGCs [1] is listed as 1.14 ± 0.07. The “Effect on the number of PGCs, in words” value in the experiment on porcine PGCs [2] was “positive effect”.
For `N[C@@H](CCC(=O)N[C@@H](CS)C(=O)NCC(=O)O)C(=O)O` [GSH, glutathione], the “Proportion of cells going into G0, in words” value in experiment [3] (setting [7]) and in experiment [4] (setting [7]) was “did not affect the proportion of cells going into G0” in each case. For the same compound, the “G0/G1 (%)” value in experiment [3] (setting [8]) came to 95%; in experiment [4] (serum starvation (0.5% FBS) 5 days, MAC 0.7 pM, NAC 1 mM, GSH 2 mM), 86%. In addition, the “G2/M (%)” value in experiment [3] (setting [8]) is given as 3%; in experiment [4] (setting [8]), 10%. Moreover, the entries for the “S (%)” value in experiment [3] (setting [8]) and in experiment [4] (setting [8]) were 2% and 4%, respectively. In addition, the “5-day Apoptosis (%)” value is on record as 1.5% in experiment [5] (serum starvation 5 days, serum starved without inhibitor 15.0) and 0.12% in experiment [6]. Further, the “10-day Apoptosis (%)” value in experiment [5] (serum starvation 10 days, serum starved without inhibitor 20.4) was determined as 0.8%.
As to `CN/C(=N/CCSCc1nc[nH]c1C)NC#N` [CIM, cimetidine], in the experiment with porcine PGCs [2], the “Normalized # of Colonies + SE” value was 1.95 ± 0.05.
Consider `Cc1ccc(S(=O)(=O)N[C@@H](CCCCN)C(=O)CCl)cc1` [TLCK, Nα-p-tosyl-L-lysine chloromethyl ketone], for which the “Normalized # of Colonies + SE” value in the experiment with porcine PGCs [1] is 1.21 ± 0.10. Moreover, the “Effect on the number of PGCs, in words” value in the experiment on porcine PGCs [2] is given as “positive effect”.
Turning to `COc1ccc(O)c(C(C)(C)C)c1` [BHA, butylated hydroxyanisole], the “Normalized # of Colonies + SE” value with porcine PGCs [2] is recorded as 2.48 ± 0.27.
Still for that read-out and setting: the same measure for `CC(C)(C)[N+]([O-])=Cc1ccccc1` [BPN, N-t-butyl-α-phenylnitrone]: 1.95 ± 0.17.
